Reference: ChEMBL document CHEMBL1201862, “PubChem BioAssay data set” (2004)
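Step 1: Grow cells in 96-well plates. Step 2: Expose to compound for 48 hours at 5 concentrations. Step 3: Interpolate endpoints linearly; if unreached, use highest concentration. GI50 = concentration required for 50% inhibition of growth.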 Active and inactive are the calls of the source. Rule as the data show it: active = GI50 up to about 1.1 µM and inactive = higher.

What was measured:
Experiment in all cases: NCI anticancer screen, dose series, 48 h
MDA-N = system: MDA-N
RXF 393 = system: RXF 393
NCI-H460 = system: NCI-H460
LOX IMVI = system: LOX IMVI
CAKI-1 = system: CAKI-1
KM12 = system: KM12
OVCAR-5 = system: OVCAR-5
COLO 205 = system: COLO 205
Hs-578T = system: Hs-578T
IGROV-1 = system: IGROV-1
EKVX = system: EKVX
ACHN = system: ACHN
UACC-62 = system: UACC-62
DMS-273 = system: DMS-273
HCT-116 = system: HCT-116
DU-145 = system: DU-145
UACC-257 = system: UACC-257
SK-MEL-2 = system: SK-MEL-2
M14 = system: M14
A549 = system: A549

Structure (SMILES)	GI50 (MDA-N)	GI50 (RXF 393)	GI50 (NCI-H460)	GI50 (LOX IMVI)	GI50 (CAKI-1)	GI50 (KM12)	GI50 (OVCAR-5)	GI50 (COLO 205)	GI50 (Hs-578T)	GI50 (IGROV-1)	GI50 (EKVX)	GI50 (ACHN)	GI50 (UACC-62)	GI50 (DMS-273)	GI50 (HCT-116)	GI50 (DU-145)	GI50 (UACC-257)	GI50 (SK-MEL-2)	GI50 (M14)	GI50 (A549)
O=C1c2cc([N+](=O)[O-])cc3cc([N+](=O)[O-])cc(c23)C(=O)N1CCCNCCNCCCN1C(=O)c2cc([N+](=O)[O-])cc3cc([N+](=O)[O-])cc(c23)C1=O	0.752 µM (active)	0.0317 µM (active)	0.0169 µM (active)	0.0142 µM (active)	0.182 µM (active)	0.0582 µM (active)	0.268 µM (active)	0.041 µM (active)	0.106 µM (active)	0.0301 µM (active)	1.05 µM (active)	0.0296 µM (active)	0.302 µM (active)	< 0.01 µM (active)	0.0102 µM (active)	0.453 µM (active)	0.49 µM (active)	0.124 µM (active)	0.384 µM (active)	0.0294 µM (active)
CN1N=C(N)c2cn(C3OC(COP(=O)(O)O)C(O)C3O)c3ncnc1c23 (centres undefined)	38.4 µM (inactive)	14 µM (inactive)	52.8 µM (inactive)	1.03 µM (active)	1.18 µM (inactive)	2980 µM (inactive)	9.84 µM (inactive)	106 µM (inactive)	14.1 µM (inactive)	0.935 µM (active)	7.52 µM (inactive)	3.16 µM (inactive)	28.4 µM (inactive)	18.9 µM (inactive)	41.8 µM (inactive)	1.48 µM (inactive)	152 µM (inactive)	8.26 µM (inactive)	7.33 µM (inactive)	39.7 µM (inactive)
CC1OC(=O)C2CC3CCCCC3C(/C=C/C3CCCC(C)N3C)C12 (centres undefined)	> 100 µM (inactive)	> 100 µM (inactive)	> 100 µM (inactive)	> 100 µM (inactive)	> 100 µM (inactive)	> 100 µM (inactive)	> 100 µM (inactive)	> 100 µM (inactive)	> 100 µM (inactive)	> 100 µM (inactive)	> 100 µM (inactive)	> 100 µM (inactive)	> 100 µM (inactive)	> 100 µM (inactive)	> 100 µM (inactive)	> 100 µM (inactive)	> 100 µM (inactive)	83.2 µM (inactive)	> 100 µM (inactive)	> 100 µM (inactive)
COC(=O)/C(C=O)=C/Sc1ccccc1	–	15.3 µM (inactive)	32.1 µM (inactive)	8.65 µM (inactive)	24.2 µM (inactive)	24.1 µM (inactive)	37.6 µM (inactive)	20 µM (inactive)	–	13.9 µM (inactive)	29 µM (inactive)	26.4 µM (inactive)	22.2 µM (inactive)	18.4 µM (inactive)	22.5 µM (inactive)	–	29.8 µM (inactive)	30.9 µM (inactive)	16.6 µM (inactive)	11.3 µM (inactive)
O=Cc1ccc(-c2ccc(-c3ccc(C=O)s3)o2)s1	60.3 µM (inactive)	0.233 µM (active)	1.91 µM (inactive)	> 100 µM (inactive)	0.418 µM (active)	> 100 µM (inactive)	2.14 µM (inactive)	18.7 µM (inactive)	–	3.27 µM (inactive)	> 53.3 µM (inactive)	> 100 µM (inactive)	0.108 µM (active)	26.2 µM (inactive)	8.53 µM (inactive)	> 100 µM (inactive)	2.61 µM (inactive)	> 90.6 µM (inactive)	> 100 µM (inactive)	> 81.7 µM (inactive)
CCC1CN2CCc3cc(OC)c(OC)cc3C2CC1CC1c2cc(OC)c(OC)cc2CCN1C(=O)C(Cc1c[nH]c2ccccc12)NC(=O)OC(C)(C)C (centres undefined)	1.97 µM (inactive)	2.67 µM (inactive)	2.39 µM (inactive)	1.88 µM (inactive)	6.84 µM (inactive)	2.83 µM (inactive)	8.81 µM (inactive)	1.57 µM (inactive)	2.08 µM (inactive)	1.73 µM (inactive)	5.7 µM (inactive)	3.84 µM (inactive)	5.64 µM (inactive)	6.53 µM (inactive)	1.6 µM (inactive)	2.42 µM (inactive)	2.71 µM (inactive)	2.67 µM (inactive)	1.79 µM (inactive)	3.61 µM (inactive)
NNC(=S)N/N=C(\c1nc2ccc(Cl)cc2nc1O)C(O)c1cccc([N+](=O)[O-])c1 (centres undefined)	–	> 94.4 µM (inactive)	> 75 µM (inactive)	> 40.5 µM (inactive)	> 74.1 µM (inactive)	> 100 µM (inactive)	> 100 µM (inactive)	> 42.7 µM (inactive)	–	> 100 µM (inactive)	> 100 µM (inactive)	> 100 µM (inactive)	> 100 µM (inactive)	> 41.1 µM (inactive)	> 31.6 µM (inactive)	–	> 100 µM (inactive)	> 100 µM (inactive)	> 53.5 µM (inactive)	> 100 µM (inactive)
CN(C)C(=S)/N=c1\ss/c(=N\C(=S)N(C)C)n1-c1ccc(Cl)cc1	–	> 100 µM (inactive)	> 100 µM (inactive)	> 100 µM (inactive)	> 100 µM (inactive)	> 100 µM (inactive)	> 100 µM (inactive)	> 100 µM (inactive)	–	> 100 µM (inactive)	> 100 µM (inactive)	> 100 µM (inactive)	> 100 µM (inactive)	39.9 µM (inactive)	> 100 µM (inactive)	–	> 100 µM (inactive)	> 100 µM (inactive)	> 100 µM (inactive)	> 100 µM (inactive)
FC(F)(F)C1(Br)C(c2ccccc2)=C1c1ccccc1	–	15.5 µM (inactive)	24.7 µM (inactive)	12.9 µM (inactive)	23.8 µM (inactive)	15.8 µM (inactive)	20.9 µM (inactive)	18.8 µM (inactive)	–	24.7 µM (inactive)	32.2 µM (inactive)	16.8 µM (inactive)	15.8 µM (inactive)	17.9 µM (inactive)	6.7 µM (inactive)	–	18.5 µM (inactive)	15.9 µM (inactive)	17.1 µM (inactive)	17.7 µM (inactive)
CCOC(=O)C(=O)Nc1c(CC)cccc1C(C)C	–	> 100 µM (inactive)	> 100 µM (inactive)	> 100 µM (inactive)	> 100 µM (inactive)	> 100 µM (inactive)	> 100 µM (inactive)	> 100 µM (inactive)	–	> 100 µM (inactive)	> 100 µM (inactive)	> 100 µM (inactive)	> 100 µM (inactive)	> 100 µM (inactive)	> 100 µM (inactive)	–	> 100 µM (inactive)	> 100 µM (inactive)	> 100 µM (inactive)	> 100 µM (inactive)
CC(C)(C)OC(=O)C1=C(O)C(C(=O)OC(C)(C)C)C23CCCCC12C(C(=O)OC(C)(C)C)C(O)=C3C(=O)OC(C)(C)C (centres undefined)	–	> 100 µM (inactive)	> 100 µM (inactive)	> 100 µM (inactive)	> 100 µM (inactive)	> 100 µM (inactive)	> 100 µM (inactive)	> 100 µM (inactive)	–	> 100 µM (inactive)	> 100 µM (inactive)	> 100 µM (inactive)	> 100 µM (inactive)	> 100 µM (inactive)	> 100 µM (inactive)	–	> 100 µM (inactive)	> 100 µM (inactive)	> 100 µM (inactive)	> 100 µM (inactive)
Cc1ccccc1NC(=O)C(=O)C(C#N)c1ccccc1C (centres undefined)	–	> 100 µM (inactive)	38.2 µM (inactive)	22.5 µM (inactive)	> 100 µM (inactive)	> 100 µM (inactive)	> 100 µM (inactive)	46.8 µM (inactive)	–	> 100 µM (inactive)	> 100 µM (inactive)	> 100 µM (inactive)	> 100 µM (inactive)	> 100 µM (inactive)	> 100 µM (inactive)	–	> 100 µM (inactive)	> 100 µM (inactive)	> 100 µM (inactive)	> 100 µM (inactive)
O=C1C2C(C(=O)N1c1ccccc1)C1c3ccccc3C2C2C(=O)N(c3ccccc3)C(=O)C21 (centres undefined)	–	6.04 µM (inactive)	3.71 µM (inactive)	10.5 µM (inactive)	11.3 µM (inactive)	6.1 µM (inactive)	15.1 µM (inactive)	3.89 µM (inactive)	–	> 100 µM (inactive)	> 100 µM (inactive)	6.47 µM (inactive)	6.78 µM (inactive)	3.46 µM (inactive)	3.12 µM (inactive)	–	> 100 µM (inactive)	2.54 µM (inactive)	2.85 µM (inactive)	5.86 µM (inactive)
CNc1ccc(/C=C2\C=Cc3ccccc32)cc1	–	20.8 µM (inactive)	16.6 µM (inactive)	11.5 µM (inactive)	30.1 µM (inactive)	12.7 µM (inactive)	18.8 µM (inactive)	18.4 µM (inactive)	–	24.2 µM (inactive)	20.1 µM (inactive)	20.3 µM (inactive)	20.1 µM (inactive)	14.2 µM (inactive)	33.1 µM (inactive)	–	23.4 µM (inactive)	18.8 µM (inactive)	16.3 µM (inactive)	24 µM (inactive)
Cc1c2c(cc3c(=O)ccn(CCN(C)C)c13)c(=O)ccn2CCN(C)C	–	14.2 µM (inactive)	3.69 µM (inactive)	10.3 µM (inactive)	16.6 µM (inactive)	3.08 µM (inactive)	13.5 µM (inactive)	11.5 µM (inactive)	–	12.4 µM (inactive)	13 µM (inactive)	5.4 µM (inactive)	17.2 µM (inactive)	4.18 µM (inactive)	6.35 µM (inactive)	–	18.3 µM (inactive)	21 µM (inactive)	12.5 µM (inactive)	13.7 µM (inactive)
